Assay results as given in patent US9359373B1, “Lipophilic N-substituted norcantharimide derivatives and uses thereof” (priority 2014, dated 2016).
Read-outs that look alike come from different tables or passages of the source.

Assays:
HT29 = assay: MTT cell viability, HT29; type: cell-based, human; details: Mean ± SD, read-out: Growth Inhibition IC50 HT-29
Description: (§1) Cell lines used in the present disclosure include human liver carcinonoma cell line HepG2, human bladder carcinoma cell line BFTC905, human colon carcinoma cell lines HT29 and SW480, and human leukemia cell lines HL60 and Jurkat T, and mouse lymphocytic leukemia cell line L1210. Each cell lines were cultured and maintained in Dulbecco's modified Eagle media (DMEM) or RPMI 1640 medium supplemented with 10% heat inactivated fetal bovine serum (FBS), 1% penicillin/streptomycin, in 5% CO2195% air at 37° C.
(§2) The absorbance of the solution at 540 nm was measured by spectrophotometer. The IC50 values were defined as the drug concentration that inhibit 50% cell growth by setting the viability of untreated cells as 100%. Values were represented as the mean±SD from at least 3 independent experiments.
(§3) Effects of the compounds of formula (I) of this disclosure, specifically, NOC15 and NC 15, on HepG2 cells (liver carcinoma), BFTC905 (bladder carcinoma), HT29 (colon carcinoma), SW480 (colon carcinoma) and HL60 (leukemia) were assessed by cell viability analysis in accordance with procedures described above, in which compound 2, and other known anti-cancer agents including 5-FU, cisplatin and doxorubicin were respectively used as positive controls.

SW480 = assay: MTT cell viability, SW480; type: cell-based, human; details: Mean ± SD, read-out: Growth Inhibition IC50 SW480
Description: as §1, §2, §3

HepG2 cells [1] = assay: MTT cell viability, HepG2; type: cell-based, human
Description: as §1, §2, §3
In this example, effects of NOC15 or NC15 on HepG2 cells were assessed by cell viability analysis in accordance with procedures described above, in which compound 2 was used as a positive control.

HL60 = assay: MTT cell viability, HL60; type: cell-based, human; details: for IC50: MTT, 48 hours, Mean ± SD, read-out: Growth Inhibition IC50 HL-60; for response of leukemia cell line HL60 to treatment: in words, from Table 1
Description: as §1, §2, §3

HepG2 cells [2] = assay: Cell cycle distribution by flow cytometry (PI), HepG2; type: cell-based, human; details: 48 hours, FIG. 2
Description: (§4) Cultured cells with or without pre-treatment of the compounds of this invention (i.e., norcantharidin, NOC15, or NC15, 10-60 μM for 48 hours) were harvested from the cultured media and fixed by incuating with 75% iced cold ehtanol and kept at −20° C. until analysis. The fixed cells were then washed with PBS, and treated with […] (200 μg/mL, 500 μL) for about 1.5 hour at 37° C. Precipitated cells were collected by centrifugation and re-suspended in a buffer solution containing propidium iodine (PI) (40 μg/ml) and incubated in the dark for 20 min at 20-25° C. before being subject to flow cytometry analysis, where cell numbers at respective cell cycles were determined.
(§5) HepG2 cells were treated with 10-60 μM of the test compounds for 48 hours, then cell cycle distribution and apoptosis analysis was analyzed by flow cytometry, with the subG1 phase being stained with propidium idoine (PI). Results are illustrated in FIGS. 2 and 3.

[3] = test system: human lymphoblast cells (NHL); assay: Cell viability (CCK-8), normal lymphoblast cells; type: cell-based; details: 24 hours (NC15: 24 and 48 hours), FIG. 4, FIG. 6
Description: (§6) The cell viability assays were performed in 96-well plates. The 100 μl of cell suspensions (NHL or Jurkat T cells, 5×10^3 cells/well, serum-free medium) were inoculated in the wells and the plates were pre-incubated in the incubator for 24 hours (pre-incubated for 22 hours and stimulated with PMA 5 ng/ml plus ionomycin 250 ng/ml for 2 hours in PMAI-treated groups). Then, various concentrations of norcantharidin (0, 2, 4, 15, 30 and 60 μM) or NOC15 (0, 0.25, 0.5, 1, 2 and 4 μM) were added into the culture media in the wells. After 24 hours of incubation, the cell viability of NHL and Jurkat T cells was measured by cell counting kit-8 (CCK-8, Sigma). The half maximal inhibitory concentrations (IC50) of norcantharidin and NOC15 on Jurkat T cells and NHL cells were calculated.
(§7) In this example, a model of phorbol 12-myristate 13-acetate plus ionomycin (PMAI) activated leukemia Jurkat T cells model was employed to investigate the effects of the NOC15 on human leukemia cells (Jurkat T cells) and human lymphoblast cells (NHL).

BFTC905 = assay: MTT cell viability, BFTC905; type: cell-based, human; details: Mean ± SD, read-out: Growth Inhibition IC50 BFTC905
Description: as §1, §2, §3

HepG2 cells [4] = assay: Hoechst 33528 staining, nuclear morphological changes; type: cell-based, human; details: 40 μM, 48 hours, FIG. 1
Description: Staining with Hoechst 33528 was performed according to the method described previously (Huang et al., Cytotechnology 2009, 59, 201-208). Briefly, cells were treated with 40 μM norcantharidin, NOC15, or NC15 for 48 hours, then washed with PBS saline and stained with Hoechst 33528 (Sigma, St. Louis, Mo., USA) at a final concentration of 10 μg/mL. The slides were examined under a fluorescence microscope. Cells with a small nucleus, a high fluorescence intensity (due to chromatin condensation) or nuclear fragmentation were considered apoptotic.
To further investigate the role of apoptosis in the cytotoxicity of NOC15 and NC15, HepG2 cells were incubated with compound 2, NOC15 and NC15, respectively, for 48 hours; then were stained with Hoechst 33528 and examined by fluorescence microscope for any topical morphological changes.

HepG2 cells [5] = assay: Apoptotic analysis annexin-V/PI flow cytometry; type: cell-based, human; details: 10-60 μM, 48 hours, FIG. 3
Description: The percentage of apototic cells was determined according to the manufacturer's protocol by using an annexin-V/FITC kit/propidium iodine (PI) flow cytometer. To facilitate the detection of apoptosis, the treated cells were centrifuged for 5 min at a speed of 1,000×g at room temperature, and then resuspended and washed once with 5 mL PBS before being stained with annexin-V/PI (apoptosis detection kit, R&D Systems, Taipei, Taiwan).
as §5

[6] = test system: human leukemia cells (Jurkat T cells); assay: Cell viability (CCK-8), PMAI activated leukemia Jurkat T cells model; type: cell-based
Description: as §6, §7

normal hepatic cells = assay: Ex vivo growth of normal hepatic cells; type: cell-based; details: at about 8.2 μM
L1210 cells = assay: Syngeneic L1210 tumor in vivo therapy; parameters: species or system DBA/2 mice
Description: The DBA/2 mice (about 7 weeks old, 18-22 g) were obtained from BioLASCO Taiwan Co., Ltd. All mice were housed in specific pathogen-free condition with ad libitum access to water and laboratory chow. A solution of L1210 cells was injected into the subcutaneous tissue to establish a syngeneic tumor. Alternatively, the L1210 cells was injected peritoneally. All animal experiments were performed in accordance with the guidelines of the Animal Welfare Committee of Taipei Veterans General Hospital (Taiwan, R.O.C.).
(§8) To inoculate tumor, L1210 cells (1×10^6 cells per injection) were injected either subcutaneously or intraperitoneally to lab animals to generate tumors on day 1. After 7 days, NOC15 or NC15 (diluted in normal saline) was administered intra-peritoneally at a dose of 18 mg/kg every day for 7 days. The average body weight (BW) of the animals was measured daily.
After treatment, mice were sacrificed, and their tumors, livers and spleens were harvested and weighted, respectively; and white blood cells (WBC) counts were also measured.
(§9) Mice were inoculated with L1210 tumor cells in accordance with the procedures described in the section of “Materials and Methods.” For in vivo therapy, animals were given 18 mg/Kg NOC15 or NC15 by intra-peritoneal route, for a period of at least 7 days. Tumor size, animal body weight, respective weights of liver and spleen, as well as the white blood cell count of each animal were then measured respectively at the indicated time. Results are depicted in FIGS. 8 to 11, respectively.

Jurkat T cells = assay: Cell cycle distribution by flow cytometry, Jurkat T cells; type: cell-based, human; details: for percentage of cells in subG1 phase: FIG. 5, FIG. 7
Description: as §4
Cell cycle distribution was determined by flow cytometry as described in the “Materials and Methods” section. Results is depicted in FIG. 5.
In this example, Jurkat T cells were treated with or without NC15 (2.513 μM) for 24 or 48 hours before being subject to cell cycle analysis. Results are depicted in FIG. 7.

[7] = Body weight of treated animals; type: in vivo, mice; details: 18 mg/Kg, compared with healthy normal control, FIG. 11
Description: as §8, §9

[8] = MTT, 48 hours, Mean ± SD, read-out: Growth Inhibition IC50 HepG2
[9] = Homo sapiens, BFTC-905, 48 hours
[10] = Homo sapiens, HepG2, 24 h, Mean ± SD, read-out: Growth Inhibition On Hepatic Cancer Cells IC50 24 hrs
[11] = Homo sapiens, HepG2, 48 h, MTT, 48 hours, Mean ± SD, read-out: Growth Inhibition IC50 HepG2
[12] = Homo sapiens, HepG2, 48 h, Mean ± SD, read-out: Growth Inhibition On Hepatic Cancer Cells IC50 48 hrs
[13] = Homo sapiens, HepG2, 72 h, Mean ± SD, read-out: Growth Inhibition On Hepatic Cancer Cells IC50 72 hrs

Row | SMILES | IC50 (HT29; 48 hours) [µM] | IC50 (SW480; 48 hours) [µM] | IC50 (HepG2 cells [1]; [8]) [µM] | IC50 (HL60) [µM] | response of leukemia cell line HL60 to treatment (HL60) | IC50 (BFTC905; [9]) [µM] | nuclear morphological changes (apoptosis features) (HepG2 cells [4]) | IC50 (HT29; Homo sapiens, HT-29, 48 hours) [µM] | IC50 (SW480; Homo sapiens, SW480, 48 hours) [µM] | percentage of apoptotic cells / cell death (HepG2 cells [5]) | IC50 (HepG2 cells [1]; [10]) [µM] | IC50 (HepG2 cells [1]; [11]) [µM] | IC50 (HepG2 cells [1]; [12]) [µM] | IC50 (HepG2 cells [1]; [13]) [µM] | IC50 (HL60; Homo sapiens, HL-60) [µM] | also measured
1 | N.N.[Cl][Pt][Cl] [Cisplatin, cisplatin] | 24.1 ± 0.1 | 40.7 ± 1.2 | 36.1 ± 3.1 | > 100 | did not respond well |  |  |  |  |  |  |  |  |  |  | 
2 | O=C1OC(=O)C2C3CCC(O3)C12 (stereo not drawn) [Compound 2, 7-oxabicyclo[2.2.1]heptane-2,3-dicarboxylic anhydride, reference compound] |  |  |  |  |  | 18.9 ± 0.3 | Significant morphological features of apotosis | 19.5 ± 0.2 | 49.1 ± 8.4 | cytoxic effect was only observed when high concentration of compound 2 was used | 48 ± 0.7 | 42 ± 1.8 | 42 ± 1.8 | 22.8 ± 0.6 | > 100 | fraction of apoptotic cells (subG1) (HepG2 cells [2]; 10 μM): only a small fraction of apoptotic cells; fraction of apoptotic cells (subG1) (HepG2 cells [2]; 20 μM): 1.6%; fraction of apoptotic cells (subG1) (HepG2 cells [2]; 60 μM): 16.7%; cytotoxicity to normal lymphatic/lymphoblast cells (NHL) [3]: did not possess significant cytotoxicity; cytotoxicity to leukemia Jurkat T cells ([6]; 24 hours (NC15: 24 and 48 hours), FIG. 4, FIG. 6): toxic; percentage of viable cells if pre-treated with PMA ([6]; PMA plus ionomycin pre-treatment, FIG. 4): increased slightly
3 | O=c1[nH]cc(F)c(=O)[nH]1 [Compound 5-FU, 5-FU] | > 100 | 32.7 ± 8.3 | 40.2 ± 7.6 | > 100 | did not respond well |  |  |  |  |  |  |  |  |  |  | IC50 (BFTC905; 48 hours): > 100 µM
4 | CC(C)=CCCC(C)=CCCC(C)=CCON1C(=O)C2C3CCC(O3)C2C1=O (stereo not drawn) [Compound 9, N-farnesyloxy-7-oxabicyclo[2.2.1]heptane-2,3-dicarboximide] |  |  |  |  | did respond | 11.3 ± 1 | Significant morphological features of apotosis | 9.7 ± 1.7 | 18.5 ± 2.3 | dose-dependent | 10.7 ± 0.2 | 8.3 ± 1.3 | 8.3 ± 1.3 | 8.2 ± 0.6 | 39 ± 1.1 | accumulation of cells in G2/M phase (HepG2 cells [2]; 10-60 μM): inducing the accumulation of cells in G2/M phase; effect on normal hepatic cells (normal hepatic cells): un-affected; weight of liver (L1210 cells; IP-inoculated tumor, 18 mg/kg i.p., FIG. 9B): improved significantly; weight of spleen (L1210 cells; IP-inoculated tumor, 18 mg/kg i.p., FIG. 9C): improved significantly; increase in life span (L1210 cells; SC-inoculated tumors, 18 mg/kg i.p. daily, FIG. 8A): about 40%; weight of s.c. tumor (L1210 cells; SC-inoculated, 18 mg/kg i.p., FIG. 9A): Significant reduction; white blood cell (WBC) counts (L1210 cells; day 14, SC- or IP-injected L1210, 18 mg/kg i.p., FIG. 10): significant reductions; percentage of cells in subG1 phase (Jurkat T cells; treated 24 hours (NC15 2.513 μM)): increased; percentage of cells in subG1 phase (Jurkat T cells; treated 48 hours (NC15 2.513 μM)): increased; percentage of cells in G2/M phase (Jurkat T cells; treated 48 hours, FIG. 5C): increased; total body weight along the course of treatment [7]: gradually improved the total body weight; IC50 (HepG2 cells [1]; Homo sapiens, HepG2, hepatic cancerous cells, time not given, read-out: concentration inhibiting ex vivo growth of hepatic cancerous cells for about 50%): ~8.2 µM
5 | COc1cccc2c1C(=O)c1c(O)c3c(c(O)c1C2=O)C[C@@](O)(C(=O)CO)C[C@@H]3O[C@H]1C[C@H](N)[C@H](O)[C@H](C)O1 [Doxorubicin, doxorubicin] |  |  |  |  |  |  |  | 1.7 ± 0.2 | 0.5 ± 0.1 |  |  | 0.3 |  |  | 14.3 ± 0.9 | 
